Experiment: mn = molality of the nth substance listed, in mol/kg
Conditions: Liquid, Constant-volume piezometry

[Br-].[K+] [potassium bromide] + O
Conditions | mass density [kg/m3]
298.15 K, 101 kPa, m1 = 0.2378 | 1017
298.15 K, 101 kPa, m1 = 0.4645 | 1035.5
298.15 K, 101 kPa, m1 = 0.944 | 1073.1
298.15 K, 101 kPa, m1 = 2.231 | 1167.1
298.94 K, 4079 kPa, m1 = 0.944 | 1074.6
298.94 K, 13886 kPa, m1 = 0.944 | 1079.1
298.94 K, 28950 kPa, m1 = 0.944 | 1085.8
303.15 K, 101 kPa, m1 = 0.2378 | 1015.5
303.15 K, 101 kPa, m1 = 0.4645 | 1033.8
303.15 K, 101 kPa, m1 = 0.944 | 1071.4
303.15 K, 101 kPa, m1 = 2.231 | 1164.9
305.49 K, 3020 kPa, m1 = 0.2378 | 1016
305.49 K, 10375 kPa, m1 = 0.2378 | 1019.1
305.49 K, 27594 kPa, m1 = 0.2378 | 1026.4
308.15 K, 101 kPa, m1 = 0.2378 | 1013.7
308.15 K, 101 kPa, m1 = 0.4645 | 1032
308.15 K, 101 kPa, m1 = 0.944 | 1069.3
308.15 K, 101 kPa, m1 = 2.231 | 1162.4
308.32 K, 3256 kPa, m1 = 0.4645 | 1033.3
308.32 K, 10375 kPa, m1 = 0.4645 | 1036.5
308.32 K, 29078 kPa, m1 = 0.4645 | 1044.3
310.59 K, 2118 kPa, m1 = 2.231 | 1162.1
310.59 K, 14710 kPa, m1 = 2.231 | 1167.8
310.59 K, 19825 kPa, m1 = 2.231 | 1170.1
310.59 K, 29828 kPa, m1 = 2.231 | 1174.5
313.15 K, 101 kPa, m1 = 0.2378 | 1011.8
313.15 K, 101 kPa, m1 = 0.4645 | 1030.1
313.15 K, 101 kPa, m1 = 0.944 | 1067.2
313.15 K, 101 kPa, m1 = 2.231 | 1159.9
318.15 K, 101 kPa, m1 = 0.2378 | 1009.8
318.15 K, 101 kPa, m1 = 0.4645 | 1027.9
318.15 K, 101 kPa, m1 = 0.944 | 1065
318.15 K, 101 kPa, m1 = 2.231 | 1157.4
323.15 K, 101 kPa, m1 = 0.2378 | 1007.5
323.15 K, 101 kPa, m1 = 0.4645 | 1025.6
323.15 K, 101 kPa, m1 = 0.944 | 1062.5
323.15 K, 101 kPa, m1 = 2.231 | 1154.8
328.15 K, 101 kPa, m1 = 0.2378 | 1005.1
328.15 K, 101 kPa, m1 = 0.4645 | 1023.2
328.15 K, 101 kPa, m1 = 0.944 | 1060
328.15 K, 101 kPa, m1 = 2.231 | 1152.1
333.15 K, 101 kPa, m1 = 0.2378 | 1002.6
333.15 K, 101 kPa, m1 = 0.4645 | 1020.5
333.15 K, 101 kPa, m1 = 0.944 | 1057.4
333.15 K, 101 kPa, m1 = 2.231 | 1149.3
338.15 K, 101 kPa, m1 = 0.2378 | 999.9
338.15 K, 101 kPa, m1 = 0.4645 | 1017.8
338.15 K, 101 kPa, m1 = 0.944 | 1054.6
338.15 K, 101 kPa, m1 = 2.231 | 1146.4
343.15 K, 101 kPa, m1 = 0.2378 | 997.1
343.15 K, 101 kPa, m1 = 0.4645 | 1014.9
343.15 K, 101 kPa, m1 = 0.944 | 1051.7
343.33 K, 3923 kPa, m1 = 0.4645 | 1016.4
343.33 K, 9552 kPa, m1 = 0.4645 | 1018.7
343.33 K, 16550 kPa, m1 = 0.4645 | 1021.6
343.33 K, 28570 kPa, m1 = 0.4645 | 1026.7
348.15 K, 101 kPa, m1 = 0.2378 | 994.2
348.15 K, 101 kPa, m1 = 0.4645 | 1012
348.15 K, 101 kPa, m1 = 0.944 | 1048.7
349.79 K, 3334 kPa, m1 = 0.2378 | 994.6
349.79 K, 11278 kPa, m1 = 0.2378 | 997.9
349.79 K, 23461 kPa, m1 = 0.2378 | 1003.1
349.79 K, 29380 kPa, m1 = 0.2378 | 1005.5
358.08 K, 3668 kPa, m1 = 0.944 | 1043.1
358.08 K, 10120 kPa, m1 = 0.944 | 1046.1
358.08 K, 29145 kPa, m1 = 0.944 | 1054.5
359.48 K, 3824 kPa, m1 = 2.231 | 1132.6
359.48 K, 10866 kPa, m1 = 2.231 | 1135.7
359.48 K, 18995 kPa, m1 = 2.231 | 1139.3
359.48 K, 25870 kPa, m1 = 2.231 | 1142.3
380.97 K, 3746 kPa, m1 = 0.4645 | 990.6
380.97 K, 9316 kPa, m1 = 0.4645 | 993.2
380.97 K, 21042 kPa, m1 = 0.4645 | 998.6
380.97 K, 29750 kPa, m1 = 0.4645 | 1002.5
393.11 K, 3256 kPa, m1 = 0.2378 | 963.5
393.11 K, 10866 kPa, m1 = 0.2378 | 967.2
393.11 K, 21065 kPa, m1 = 0.2378 | 972
393.11 K, 26860 kPa, m1 = 0.2378 | 974.7
400.81 K, 3099 kPa, m1 = 0.944 | 1010.2
400.81 K, 9061 kPa, m1 = 0.944 | 1013
400.81 K, 18381 kPa, m1 = 0.944 | 1017.7
400.81 K, 25438 kPa, m1 = 0.944 | 1020.8
432.97 K, 4236 kPa, m1 = 2.231 | 1073.5
432.97 K, 11356 kPa, m1 = 2.231 | 1077.7
432.97 K, 16570 kPa, m1 = 2.231 | 1080.7
432.97 K, 22357 kPa, m1 = 2.231 | 1084
434.09 K, 4805 kPa, m1 = 0.2378 | 928.1
434.09 K, 9218 kPa, m1 = 0.2378 | 930.6
434.09 K, 16941 kPa, m1 = 0.2378 | 935
434.09 K, 28064 kPa, m1 = 0.2378 | 941.1
453.99 K, 3825 kPa, m1 = 0.4645 | 925.6
453.99 K, 9140 kPa, m1 = 0.4645 | 928.9
453.99 K, 16241 kPa, m1 = 0.4645 | 933.5
453.99 K, 22957 kPa, m1 = 0.4645 | 937.5
456.48 K, 4158 kPa, m1 = 0.944 | 959.4
456.48 K, 10120 kPa, m1 = 0.944 | 963.3
456.48 K, 17148 kPa, m1 = 0.944 | 967.9
456.48 K, 24027 kPa, m1 = 0.944 | 972.2
475.7 K, 4903 kPa, m1 = 0.2378 | 884.5
475.7 K, 10611 kPa, m1 = 0.2378 | 888.7
475.7 K, 22060 kPa, m1 = 0.2378 | 896.6
475.7 K, 29860 kPa, m1 = 0.2378 | 902
482.36 K, 4413 kPa, m1 = 0.4645 | 893.9
482.36 K, 8571 kPa, m1 = 0.4645 | 897
482.36 K, 15175 kPa, m1 = 0.4645 | 902
482.36 K, 20588 kPa, m1 = 0.4645 | 905.8
483.32 K, 5217 kPa, m1 = 2.231 | 1024.2
483.32 K, 12082 kPa, m1 = 2.231 | 1029.2
483.32 K, 22088 kPa, m1 = 2.231 | 1036.8
483.32 K, 26194 kPa, m1 = 2.231 | 1039.4
493.15 K, 4413 kPa, m1 = 0.944 | 918.4
493.15 K, 11591 kPa, m1 = 0.944 | 923.9
493.15 K, 21454 kPa, m1 = 0.944 | 931.3
493.15 K, 25284 kPa, m1 = 0.944 | 934.3
505.79 K, 5786 kPa, m1 = 2.231 | 999.3
505.79 K, 11846 kPa, m1 = 2.231 | 1004
505.79 K, 16954 kPa, m1 = 2.231 | 1007.9
505.79 K, 23854 kPa, m1 = 2.231 | 1013.5
511.39 K, 6119 kPa, m1 = 0.4645 | 858.4
511.39 K, 10297 kPa, m1 = 0.4645 | 862.3
511.39 K, 16047 kPa, m1 = 0.4645 | 867.8
511.39 K, 24184 kPa, m1 = 0.4645 | 875.1
520.89 K, 7355 kPa, m1 = 0.944 | 884.8
520.89 K, 12082 kPa, m1 = 0.944 | 889.3
520.89 K, 20122 kPa, m1 = 0.944 | 896.9
534.22 K, 8081 kPa, m1 = 0.2378 | 809.6
534.22 K, 11356 kPa, m1 = 0.2378 | 813.5
534.22 K, 23496 kPa, m1 = 0.2378 | 827
540.44 K, 8571 kPa, m1 = 0.4645 | 819.8
540.44 K, 11591 kPa, m1 = 0.4645 | 823.1
540.44 K, 22189 kPa, m1 = 0.4645 | 836.2
551.72 K, 9140 kPa, m1 = 0.944 | 842.2
551.72 K, 14533 kPa, m1 = 0.944 | 848.7
551.72 K, 21645 kPa, m1 = 0.944 | 857.5
555.7 K, 9708 kPa, m1 = 2.231 | 941.3
555.7 K, 13965 kPa, m1 = 2.231 | 946
555.7 K, 19995 kPa, m1 = 2.231 | 952.8
555.7 K, 23967 kPa, m1 = 2.231 | 957
579.16 K, 11670 kPa, m1 = 0.944 | 797.3
579.16 K, 14220 kPa, m1 = 0.944 | 803
579.16 K, 20665 kPa, m1 = 0.944 | 816.1
579.16 K, 23665 kPa, m1 = 0.944 | 822.3
580.61 K, 11023 kPa, m1 = 0.4645 | 754.1
580.61 K, 12494 kPa, m1 = 0.4645 | 757.8
580.61 K, 19782 kPa, m1 = 0.4645 | 773.2
592.65 K, 11234 kPa, m1 = 0.2378 | 698.5
592.65 K, 13731 kPa, m1 = 0.2378 | 706.6
592.65 K, 20610 kPa, m1 = 0.2378 | 725.2
608.09 K, 16573 kPa, m1 = 0.4645 | 703.4
608.09 K, 17652 kPa, m1 = 0.4645 | 707.1
608.09 K, 23146 kPa, m1 = 0.4645 | 725.8
616.41 K, 14847 kPa, m1 = 0.944 | 714.7
616.41 K, 15769 kPa, m1 = 0.944 | 727.1
616.41 K, 19875 kPa, m1 = 0.944 | 753.5
628.63 K, 17475 kPa, m1 = 2.231 | 841.1
628.63 K, 18221 kPa, m1 = 2.231 | 844.9
